Results taken from ChEMBL document CHEMBL5365500, “Development and Antibacterial Properties of 4-[4-(Anilinomethyl)-3-phenylpyrazol-1-yl]benzoic Acid Derivatives as Fatty Acid Biosynthesis Inhibitors” (J Med Chem, 2023).
≈ marks a conversion by molar mass, not a printed value.

Legend:
Format in all cases: functional
Settings in all cases: time 20-24 hrs
Staphylococcus aureus [1] = test: Antimicrobial activity against antibiotic-resistant Staphylococcus aureus ATCC BAA-2312 assessed as inhibition of visible growth measured after 20 to 24 hrs incubation by CLSI method
Enterococcus faecalis [2] = test: Antimicrobial activity against antibiotic-susceptible Enterococcus faecalis ATCC 29212 assessed as inhibition of visible growth measured after 20 to 24 hrs incubation by CLSI method
Staphylococcus aureus [3] = test: Antimicrobial activity against antibiotic-resistant Staphylococcus aureus ATCC 700699 assessed as inhibition of visible growth measured after 20 to 24 hrs incubation by CLSI method
Bacillus subtilis = test: Antimicrobial activity against antibiotic-resistant Bacillus subtilis ATCC 6623 assessed as inhibition of visible growth measured after 20 to 24 hrs incubation by CLSI method
Staphylococcus aureus [4] = test: Antimicrobial activity against antibiotic-resistant Staphylococcus aureus ATCC 33592 assessed as inhibition of visible growth measured after 20 to 24 hrs incubation by CLSI method
Enterococcus faecalis [5] = test: Antimicrobial activity against antibiotic-resistant Enterococcus faecalis ATCC 51299 assessed as inhibition of visible growth measured after 20 to 24 hrs incubation by CLSI method
Enterococcus faecium = test: Antimicrobial activity against antibiotic-resistant Enterococcus faecium ATCC 700221 assessed as inhibition of visible growth measured after 20 to 24 hrs incubation by CLSI method
Staphylococcus aureus [6] = test: Antimicrobial activity against Staphylococcus aureus ATCC 25923 assessed as inhibition of visible growth measured after 20 to 24 hrs incubation by CLSI method
Staphylococcus aureus [7] = test: Antimicrobial activity against antibiotic-resistant Staphylococcus aureus ATCC 33591 assessed as inhibition of visible growth measured after 20 to 24 hrs incubation by CLSI method
[8] = test system: Staphylococcus epidermidis; test: Antimicrobial activity against antibiotic-resistant Staphylococcus epidermidis ATCC 700296 assessed as inhibition of visible growth measured after 20 to 24 hrs incubation by CLSI method

Row | SMILES | MIC (Staphylococcus aureus [1]) [µg/mL] | MIC (Enterococcus faecalis [2]) [µg/mL] | MIC (Staphylococcus aureus [3]) [µg/mL] | MIC (Bacillus subtilis) [µg/mL] | MIC (Staphylococcus aureus [4]) [µg/mL] | MIC (Enterococcus faecalis [5]) [µg/mL] | MIC (Enterococcus faecium) [µg/mL] | MIC (Staphylococcus aureus [6]) [µg/mL] | MIC (Staphylococcus aureus [7]) [µg/mL] | MIC [8] [µg/mL]
1 | O=C(O)c1ccc(-n2cc(CNc3cc(F)c(F)c(F)c3)c(-c3ccc(F)c(F)c3)n2)cc1 | 8 (≈ 17.4 µM) | > 32 | 8 (≈ 17.4 µM) | 4 (≈ 8.71 µM) | 8 (≈ 17.4 µM) | > 32 | 8 (≈ 17.4 µM) | 8 (≈ 17.4 µM) | 4 (≈ 8.71 µM) | 16 (≈ 34.8 µM)
2 | CC(C)c1ccc(NCc2cn(-c3ccc(C(=O)O)cc3)nc2-c2ccc(F)cc2)cc1 | 4 (≈ 9.31 µM) | 16 (≈ 37.3 µM) | 4 (≈ 9.31 µM) | 2 (≈ 4.66 µM) | 8 (≈ 18.6 µM) | 8 (≈ 18.6 µM) | 4 (≈ 9.31 µM) | 8 (≈ 18.6 µM) | 4 (≈ 9.31 µM) | 8 (≈ 18.6 µM)
3 | O=C(O)c1ccc(-n2cc(CNc3cccc(OC(F)(F)F)c3)c(-c3ccc(F)c(F)c3)n2)cc1 | 2 (≈ 4.09 µM) | 8 (≈ 16.3 µM) | 4 (≈ 8.17 µM) | 1 (≈ 2.04 µM) | 4 (≈ 8.17 µM) | 8 (≈ 16.3 µM) | 4 (≈ 8.17 µM) | 4 (≈ 8.17 µM) | 1 (≈ 2.04 µM) | 8 (≈ 16.3 µM)
4 | O=C(O)c1ccc(-n2cc(CNc3cc(F)cc(C(F)(F)F)c3)c(-c3cccc(F)c3)n2)cc1 | 2 (≈ 4.22 µM) | 8 (≈ 16.9 µM) | 2 (≈ 4.22 µM) | 1 (≈ 2.11 µM) | 1 (≈ 2.11 µM) | 8 (≈ 16.9 µM) | 4 (≈ 8.45 µM) | 2 (≈ 4.22 µM) | 1 (≈ 2.11 µM) | 4 (≈ 8.45 µM)
5 | O=C(O)c1ccc(-n2cc(CNc3ccc(F)c(F)c3)c(-c3cccc(F)c3)n2)cc1 | 16 (≈ 37.8 µM) | > 32 | 16 (≈ 37.8 µM) | 8 (≈ 18.9 µM) | 16 (≈ 37.8 µM) | 32 (≈ 75.6 µM) | 32 (≈ 75.6 µM) | 16 (≈ 37.8 µM) | 16 (≈ 37.8 µM) | 32 (≈ 75.6 µM)
6 | O=C(O)c1ccc(-n2cc(CNc3ccc(Cl)cc3)c(-c3ccc(F)c(F)c3)n2)cc1 | > 32 | > 32 | > 32 | 4 (≈ 9.09 µM) | > 32 | > 32 | > 32 | > 32 | > 32 | > 32
7 | O=C(O)c1ccc(-n2cc(CNc3ccc(F)c(Cl)c3)c(-c3ccc(F)c(F)c3)n2)cc1 | 4 (≈ 8.74 µM) | 16 (≈ 34.9 µM) | 8 (≈ 17.5 µM) | 2 (≈ 4.37 µM) | 8 (≈ 17.5 µM) | 32 (≈ 69.9 µM) | 8 (≈ 17.5 µM) | 8 (≈ 17.5 µM) | 2 (≈ 4.37 µM) | 8 (≈ 17.5 µM)
8 | NS(=O)(=O)c1ccc(NCc2cn(-c3ccc(C(=O)O)cc3)nc2-c2ccc(F)cc2)cc1 | > 32 | > 32 | > 32 | > 32 | > 32 | > 32 | > 32 | > 32 | > 32 | 16 (≈ 34.3 µM)
9 | O=C(O)c1ccc(-n2cc(CNc3ccc(Br)cc3)c(-c3ccc(F)c(F)c3)n2)cc1 | > 32 | > 32 | > 32 | > 32 | > 32 | > 32 | > 32 | > 32 | > 32 | > 32
10 | O=C(O)c1ccc(-n2cc(CNc3ccc(Oc4ccccc4)cc3)c(-c3cccc(F)c3)n2)cc1 | 2 (≈ 4.17 µM) | 8 (≈ 16.7 µM) | 4 (≈ 8.34 µM) | 2 (≈ 4.17 µM) | 4 (≈ 8.34 µM) | 8 (≈ 16.7 µM) | 4 (≈ 8.34 µM) | 4 (≈ 8.34 µM) | 2 (≈ 4.17 µM) | 8 (≈ 16.7 µM)
11 | O=C(O)c1ccc(-n2cc(CNc3cccc(OC(F)(F)F)c3)c(-c3ccc(F)cc3)n2)cc1 | 4 (≈ 8.49 µM) | 16 (≈ 33.9 µM) | 8 (≈ 17 µM) | 2 (≈ 4.24 µM) | 8 (≈ 17 µM) | 16 (≈ 33.9 µM) | 16 (≈ 33.9 µM) | 4 (≈ 8.49 µM) | 2 (≈ 4.24 µM) | 8 (≈ 17 µM)
12 | Cc1cc(NCc2cn(-c3ccc(C(=O)O)cc3)nc2-c2ccc(F)cc2)ccc1F | 16 (≈ 38.1 µM) | > 32 | 8 (≈ 19.1 µM) | 4 (≈ 9.54 µM) | 16 (≈ 38.1 µM) | > 32 | > 32 | 16 (≈ 38.1 µM) | 8 (≈ 19.1 µM) | 32 (≈ 76.3 µM)
13 | O=C(O)c1ccc(-n2cc(CNc3ccc(Cl)c(Cl)c3)c(-c3ccc(F)c(F)c3)n2)cc1 | 1 (≈ 2.11 µM) | 4 (≈ 8.43 µM) | 2 (≈ 4.22 µM) | 0.5 (≈ 1.05 µM) | 1 (≈ 2.11 µM) | 8 (≈ 16.9 µM) | 2 (≈ 4.22 µM) | 1 (≈ 2.11 µM) | 0.5 (≈ 1.05 µM) | 2 (≈ 4.22 µM)
14 | O=C(O)c1ccc(-n2cc(CNc3cc(Cl)c(F)c(Cl)c3)c(-c3ccc(F)c(F)c3)n2)cc1 | 0.5 (≈ 1.02 µM) | 4 (≈ 8.13 µM) | 1 (≈ 2.03 µM) | 0.5 (≈ 1.02 µM) | 1 (≈ 2.03 µM) | 4 (≈ 8.13 µM) | 1 (≈ 2.03 µM) | 1 (≈ 2.03 µM) | 0.25 (≈ 0.508 µM) | 2 (≈ 4.06 µM)
15 | O=C(O)c1ccc(-n2cc(CNc3cccc(C(F)(F)F)c3)c(-c3ccc(F)cc3)n2)cc1 | 4 (≈ 8.78 µM) | 16 (≈ 35.1 µM) | 4 (≈ 8.78 µM) | 2 (≈ 4.39 µM) | 8 (≈ 17.6 µM) | 16 (≈ 35.1 µM) | 8 (≈ 17.6 µM) | 8 (≈ 17.6 µM) | 2 (≈ 4.39 µM) | 8 (≈ 17.6 µM)
16 | O=C(O)c1ccc(-n2cc(CNc3ccc(Br)c(Cl)c3)c(-c3ccc(F)c(F)c3)n2)cc1 | 1 (≈ 1.93 µM) | 4 (≈ 7.71 µM) | 2 (≈ 3.86 µM) | 2 (≈ 3.86 µM) | 2 (≈ 3.86 µM) | 4 (≈ 7.71 µM) | 4 (≈ 7.71 µM) | 1 (≈ 1.93 µM) | 0.5 (≈ 0.964 µM) | 2 (≈ 3.86 µM)
17 | O=C(O)c1ccc(-n2cc(CNc3ccc(Oc4ccccc4)cc3)c(-c3ccc(F)c(F)c3)n2)cc1 | 1 (≈ 2.01 µM) | 4 (≈ 8.04 µM) | 2 (≈ 4.02 µM) | 1 (≈ 2.01 µM) | 2 (≈ 4.02 µM) | 4 (≈ 8.04 µM) | 2 (≈ 4.02 µM) | 1 (≈ 2.01 µM) | 1 (≈ 2.01 µM) | 2 (≈ 4.02 µM)
18 | O=C(O)c1ccc(-n2cc(CNc3cc(Cl)c(F)c(Cl)c3)c(-c3ccc(F)cc3)n2)cc1 | 1 (≈ 2.11 µM) | 8 (≈ 16.9 µM) | 2 (≈ 4.22 µM) | 1 (≈ 2.11 µM) | 1 (≈ 2.11 µM) | 4 (≈ 8.43 µM) | 4 (≈ 8.43 µM) | 1 (≈ 2.11 µM) | 0.5 (≈ 1.05 µM) | 2 (≈ 4.22 µM)
19 | O=C(O)c1ccc(-n2cc(CNc3ccc(Cl)c(C(F)(F)F)c3)c(-c3ccc(F)cc3)n2)cc1 | 2 (≈ 4.08 µM) | 8 (≈ 16.3 µM) | 1 (≈ 2.04 µM) | 1 (≈ 2.04 µM) | 2 (≈ 4.08 µM) | 8 (≈ 16.3 µM) | 2 (≈ 4.08 µM) | 2 (≈ 4.08 µM) | 1 (≈ 2.04 µM) | 4 (≈ 8.17 µM)
